The values that follow come from PMC13183915, “A platinum butterfly effect: small changes turn an anticancer drug into a non-toxic metalloantibiotic with in vivo efficacy” (npj Antimicrobials and Resistance, 2026).

Converted amounts (≈) assume the structure as drawn. Where two headings read alike, the source gives them in different places.

One assay has as its system MSSA ATCC 29213. The experiment in a line: Broth microdilution MIC, MSSA ATCC 29213. In kind it is cell-based, S. aureus. The note with it: Staphylococcus aureus. As for the experimental part:
The data is given in supporting information (Table S5). Before starting the experiment, a single colony was picked from MHA plate, inoculated in MHBII and incubated overnight at 37 °C with shaking for 18–24 h to get the starter culture. Antibiotic susceptibility testing was conducted according to the CLSI (Clinical & Laboratory Standards Institute) guidelines using the broth microdilution assay. 10 mg/mL stock solutions of test compounds were prepared in DMSO. Bacterial cultures were inoculated in MHBII and optical density (OD) was measured at 600 nm, followed by dilution to achieve ~10^6 CFU/mL. The compounds were tested from 64 to 0.5 mg/L in two-fold serial diluted fashion with 2.5 μL of each concentration added to well of a 96-well round bottom microtiter plate. Later, 97.5 μL of bacterial suspension was added to each well containing either test compound or appropriate controls. […] The MIC is defined as the lowest concentration of the compound at which there is absence of visible growth. For each test compound, MIC determinations were carried out independently three times using duplicate samples.
For orientation: Broth dilution looks for growth in wells or tubes with falling amounts of substance.

Assay [1] relates to S. aureus ATCC 29213. The experiment in a line: Drug interaction study (chequerboard assay). In kind it is cell-based. The settings on record: for MIC: Staphylococcus aureus, ATCC29213; for FIC B: antibiotic in combination with Pt1 / alone; for FIC (FICA+FICB) / Interference: combination with Pt1; for Interference: synergistic ≤0.5, indifferent >0.5 to 4, antagonistic >4. Here is the method: All compounds were freshly prepared for the experiment. […] Following incubation, the fractional inhibitory concentration index (FICI) was calculated with the formula FICI = […], whereby FICA = MIC of drug A in combination/MIC of drug A alone and FICB = MIC of drug B in combination/MIC of drug B alone. A drug combination is considered synergistic when ∑FICI is ≤0.5, indifferent when ∑FICI is >0.5 to 4, and antagonistic when ∑FICI is >4.

The subject of assay [2] is 36th Passage S.aureus ATCC 29213 in the presence of Pt-1. The experiment in a line: microbe, parasite or virus in culture. Format: cell-based. The note with it: Staphylococcus aureus, ATCC29213. As for the experimental part:
(§1) The MICs of the passaged cultures were determined every 3 days and compared to that of wild type S. aureus ATCC 29213. MIC changes were recorded for 36 passages.

The test system of the next assay is S. aureus (CCUG 62707). Briefly: MIC of COD ligand and Pt precursor, S. aureus CCUG 62707. Format: cell-based.
A further assay concerns E. coli (NCTC 13476). Briefly: MIC, E. coli NCTC 13476 (with or without PMBN). In kind it is cell-based.
Assay [3] relates to 36th Passage S.aureus ATCC 29213 in the presence of Levofloxacin. Briefly: Antibiogram of strain passaged with levofloxacin. In kind it is cell-based. The settings on record: Staphylococcus aureus, ATCC29213. As for the experimental part: as §1
In assay [4] the test system is S. aureus ATCC 29213. The experiment in a line: Post antibiotic effect (PAE). Format: cell-based. The settings on record: for Time for 1 log10 increase in bacterial cfu count: 1 h exposure. As for the experimental part: Post antibiotic effect (PAE) was determined as follows. […] Following incubation, cultures were centrifuged and washed twice with pre-warmed MHBII to remove any traces of antibiotics. Finally, cells were resuspended in drug-free MHBII and incubated further at 37 °C. Samples were taken every 1 h, serially diluted, and plated on tryptic soy agar (TSA) for enumeration of CFU. […] CFU observed immediately after the removal of the drug, and C in a similarly treated drug-free control.

The test system of assay [5] is methicillin-sensitive Staphylococcus aureus (MSSA), clinical isolate. The experiment in a line: MIC assay, MSSA clinical isolate. Format: cell-based. The note with it: MSSA clinical isolate.
In assay [6] the test system is methicillin-resistant S. aureus (MRSA) COL. Briefly: MIC assay, MRSA COL. The settings on record: MRSA COL. Format: cell-based, Staphylococcus aureus.
The next assay relates to Bacillus subtilis MW168. Briefly: MIC assay, B. subtilis MW168. In kind it is cell-based. The note with it: B. subtilis MW168.
The subject of the next assay is Escherichia coli W3110. Briefly: MIC assay, E. coli. In kind it is cell-based. The settings on record: E. coli, Table S2.
For the next assay, the system named is B. subtilis 168CA. The experiment in a line: ROS scavenger assay (modified MIC assay). Format: cell-based, Bacillus subtilis. As for the experimental part: LB media were prepared to contain either 10 mM tiron, 150 mM thiourea, 10 mM tiron and 150 mM thiourea, or no […]. Serial two-fold dilutions of the different antibiotics were prepared in the respective media and transferred to 96-well plates. […] The OD600 was meassured in a BMG Clariostar Plus plate reader.

Setting [7] is: S.aureus ATCC 29213 (unpassaged), Table S9, read-out: MIC.
The mark [8] stands for this setting: compound alone, Table S8, read-out: MIC.

`CC(C)(O/N=C(\C(=O)N[C@@H]1C(=O)N2C(C(=O)[O-])=C(C[n+]3ccccc3)CS[C@H]12)c1csc(N)n1)C(=O)O` [Ceftazidime]: the MIC stood at 16 mg/L (≈ 29.3 µM) in the assay with MSSA ATCC 29213 (setting [7]), 16 mg/L with S. aureus ATCC 29213 [1] (setting [8]) and 16 mg/L (≈ 29.3 µM) in [2]. In addition, in the assay on S. aureus ATCC 29213 [1], the “FIC B” value stood at 1. For the same molecule, the “FIC (FICA+FICB)” value in the assay on S. aureus ATCC 29213 [1] came to 2. Besides, the Interference result in the assay with S. aureus ATCC 29213 [1] was “no interaction”.

Consider `[Cl][Pt-2]([Cl])([Cl])[Cl].[K+].[K+]` [Pt K2PtCl4, K2PtCl4], for which the MIC in the assay with S. aureus (CCUG 62707) (S. aureus CCUG 62707) and against E. coli (NCTC 13476) (E. coli NCTC 13476) was above 200 µM throughout.

As to `CNC(C)C1CCC(N)C(OC2C(N)CC(N)C(OC3OCC(C)(O)C(NC)C3O)C2O)O1` (stereo not drawn) [Gentamicin], the MIC in the assay with MSSA ATCC 29213 (setting [7]) stood at 0.25 mg/L (≈ 0.523 µM). Besides, the MIC in the assay with S. aureus ATCC 29213 [1] (setting [8]) came out at 0.25 mg/L. Moreover, in the assay with S. aureus ATCC 29213 [1], the “FIC B” value is listed as 1, the “FIC (FICA+FICB)” value turned out to be 2 and the Interference entry is “no interaction”. Moreover, the MIC in assay [2] amounted to 0.5 mg/L (≈ 1.05 µM).

Turning to `C1=CCCC=CCC1` [1,5-Cyclooctadiene, 1,5-cyclooctadiene], the MIC in the assay on S. aureus (CCUG 62707) (Staphylococcus aureus, CCUG62707) was above 200 µM; in the assay with E. coli (NCTC 13476) (Escherichia coli, NCTC13476), above 200 µM.

Regarding `C[C@H]1COc2c(N3CCN(C)CC3)c(F)cc3c(=O)c(C(=O)O)cn1c23` [Levofloxacin], the MIC with MSSA ATCC 29213 (setting [7]) came to 0.25 mg/L (≈ 0.692 µM); with S. aureus ATCC 29213 [1] (setting [8]) it was 0.25 mg/L; in assay [2], 0.25 mg/L (≈ 0.692 µM); in [3] it was 32 mg/L (≈ 88.6 µM). Also, the “FIC B” value in the assay on S. aureus ATCC 29213 [1] came to 1. Also, the “FIC (FICA+FICB)” value with S. aureus ATCC 29213 [1] was determined as 2. Besides, the Interference entry in the assay with S. aureus ATCC 29213 [1] was “no interaction”. For the same molecule, the PAE in the assay on S. aureus ATCC 29213 [4] (1x MIC) is listed as ~ 0.5 h; in the assay on S. aureus ATCC 29213 [4] (5x MIC) it was ~ 1.5 h; in the assay with S. aureus ATCC 29213 [4] (10x MIC) it was ~ 1.5 h; in the assay on S. aureus ATCC 29213 [4] (10x MIC, listed as levofloxacin), 1.5 h. Moreover, the results for the “Time for 1 log10 increase in bacterial cfu count” value in the assay with S. aureus ATCC 29213 [4] (1x MIC), in the assay with S. aureus ATCC 29213 [4] (5x MIC) and with S. aureus ATCC 29213 [4] (10x MIC) were ~ 3 h, ~ 4 h and ~ 4 h, respectively.

With `N.N.O=C([O-])C1(C(=O)[O-])CCC1.[Pt+2]` [Carboplatin], the MIC (in assay [5]; in assay [6]; against Bacillus subtilis MW168; in the assay with Escherichia coli W3110) was above 100 µM throughout.

For `CCCCCCCCCC(=O)N[C@@H](Cc1c[nH]c2ccccc12)C(=O)N[C@H](CC(N)=O)C(=O)N[C@@H](CC(=O)O)C(=O)N[C@@H]1C(=O)NCC(=O)N[C@@H](CCCN)C(=O)N[C@@H](CC(=O)O)C(=O)N[C@H](C)C(=O)N[C@@H](CC(=O)O)C(=O)NCC(=O)N[C@H](CO)C(=O)N[C@@H]([C@H](C)CC(=O)O)C(=O)N[C@@H](CC(=O)c2ccccc2N)C(=O)O[C@@H]1C` [Daptomycin], the MIC in the assay on MSSA ATCC 29213 (setting [7]) amounted to 1 mg/L (≈ 0.617 µM). Besides, the MIC in the assay on S. aureus ATCC 29213 [1] (setting [8]) is 1 mg/L. In the assay on S. aureus ATCC 29213 [1], the “FIC B” value is recorded as 1, the “FIC (FICA+FICB)” value is 2 and the Interference result is recorded as “no interaction”. Also, the MIC in [2] was found to be 1 mg/L (≈ 0.617 µM).

With `CC(=O)NC[C@H]1CN(c2ccc(N3CCOCC3)c(F)c2)C(=O)O1` [Linezolid], in the assay on MSSA ATCC 29213 (setting [7]), the MIC amounted to 2 mg/L (≈ 5.93 µM). The MIC with S. aureus ATCC 29213 [1] (setting [8]) came out at 2 mg/L. Moreover, in the assay with S. aureus ATCC 29213 [1], the “FIC B” value was 1, the “FIC (FICA+FICB)” value was 2 and the Interference result is “no interaction”. Also, in [2], the MIC was found to be 2 mg/L (≈ 5.93 µM).

For the molecule `OO` [hydrogen peroxide], the results for the “MIC fold change (increase) with scavenger” value against B. subtilis 168CA (medium containing 10 mM tiron (superoxide scavenger)) and in the assay with B. subtilis 168CA (medium containing 150 mM thiourea (hydroxyl radical scavenger)) were “not significantly affected” and 14 fold, respectively. In the assay with B. subtilis 168CA (medium containing both tiron and thiourea), the “MIC fold change (increase) with scavengers” value is given as “no additive effect”.

As to `CN(C)c1ccc(O)c2c1C[C@H]1C[C@H]3[C@H](N(C)C)C(O)=C(C(N)=O)C(=O)[C@@]3(O)C(O)=C1C2=O` [Minocycline], the MIC against MSSA ATCC 29213 was found to be 0.0625 mg/L (≈ 0.137 µM). For the same molecule, in the assay with S. aureus ATCC 29213 [1], the MIC stood at 0.125 mg/L, the “FIC B” value was 1, the “FIC (FICA+FICB)” value was 2 and the Interference result was “no interaction”. Further, the MIC in [2] came out at 0.125 mg/L (≈ 0.273 µM).

In the case of `O=C1[O][Pt]2([NH][C@@H]3CCCC[C@H]3[NH]2)[O]C1=O` [Oxaliplatin], the MIC (in assay [5]; in assay [6]; in the assay on Bacillus subtilis MW168; in the assay with Escherichia coli W3110) was above 100 µM in each case.

For `CO[C@H]1/C=C/O[C@@]2(C)Oc3c(C)c(O)c4c(O)c(c(/C=N/N5CCN(C)CC5)c(O)c4c3C2=O)NC(=O)/C(C)=C\C=C\[C@H](C)[C@H](O)[C@@H](C)[C@@H](O)[C@@H](C)[C@H](OC(C)=O)[C@@H]1C` [Rifampicin], the MIC with MSSA ATCC 29213 was found to be 0.0156 mg/L (≈ 0.019 µM). Besides, the MIC in the assay on S. aureus ATCC 29213 [1] (setting [8]) worked out at 0.0078 mg/L. Besides, in the assay on S. aureus ATCC 29213 [1], the “FIC B” value turned out to be 1, the “FIC (FICA+FICB)” value amounted to 2 and the Interference result is on record as “no interaction”. Besides, the MIC in assay [2] stood at 0.0156 mg/L (≈ 0.019 µM).

As for `C[C@@H](O)[C@H]1C(=O)N2C(C(=O)O)=C(S[C@@H]3CN[C@H](C(=O)N(C)C)C3)[C@H](C)[C@H]12` [Meropenem], the MIC in the assay with MSSA ATCC 29213 (setting [7]) came out at 0.25 mg/L (≈ 0.652 µM); with S. aureus ATCC 29213 [1] (setting [8]) it was 0.25 mg/L; in assay [2], 0.25 mg/L (≈ 0.652 µM); in assay [3], 0.125 mg/L (≈ 0.326 µM). In the assay on S. aureus ATCC 29213 [1], the “FIC B” value was 1. Further, the “FIC (FICA+FICB)” value in the assay with S. aureus ATCC 29213 [1] amounted to 2. The Interference entry with S. aureus ATCC 29213 [1] was “no interaction”.
